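Values below derive from 48-hour exposures of cells grown in 96-well plates, with endpoints linearly interpolated between the two concentrations bracketing the appropriate inhibition level. The concentration for full growth arrest is given as TGI.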
Tests used:
Assay in all cases: growth of human tumour cells (NCI), 48 h
[1] = system: M14 melanoma
[2] = system: KM12 colon
[3] = system: SR leukemia
[4] = system: DMS 114 small cell lung
[5] = system: SNB-75 CNS
[6] = system: SK-MEL-28 melanoma
[7] = system: SN12C renal
[8] = system: HCT-116 colon
[9] = system: HOP-62 NSCLC
[10] = system: SF-539 CNS
[11] = system: MOLT-4 leukemia
[12] = system: SK-MEL-5 melanoma
[13] = system: IGROV1 ovarian
[14] = system: OVCAR-4 ovarian
[15] = system: ACHN renal
[16] = system: HL-60(TB) leukemia
[17] = system: UACC-257 melanoma
[18] = system: SK-MEL-2 melanoma
[19] = system: OVCAR-3 ovarian
[20] = system: NCI-H522 lung
[21] = system: RPMI-8226 leukemia
[22] = system: U251 CNS
[23] = system: OVCAR-5 ovarian
[24] = system: DMS 273 small cell lung
[25] = system: NCI-H23 lung
[26] = system: DLD-1 colon
[27] = system: SNB-78 CNS
[28] = system: SNB-19 CNS
[29] = system: LXFL 529 NSCLC
[30] = system: SF-295 CNS
[31] = system: COLO 205 colon
[32] = system: HCT-15 colon
[33] = system: M19-MEL melanoma
[34] = system: HOP-92 NSCLC
[35] = system: KM20L2 colon
[36] = system: OVCAR-8 ovarian
[37] = system: A549 NSCLC
[38] = system: RXF-631 renal
[39] = system: HOP-18 NSCLC
[40] = system: CAKI-1 renal
[41] = system: UO-31 renal
[42] = system: NCI-H460 lung
[43] = system: EKVX NSCLC
[44] = system: 786-0 renal
[45] = system: SW-620 colon
[46] = system: NCI-H226 lung
[47] = system: SK-OV-3 ovarian
[48] = system: MALME-3M melanoma
[49] = system: A498 renal
[50] = system: K-562 leukemia
[51] = system: SF-268 CNS
[52] = system: HT29 colon
[53] = system: HCC-2998 colon
[54] = system: CCRF-CEM leukemia
[55] = system: TK-10 renal
[56] = system: XF 498 CNS
[57] = system: UACC-62 melanoma
[58] = system: LOX IMVI melanoma

Measured: TGI

COc1ccc(-c2c(N)[n+]([O-])c3ccccc3[n+]2[O-])cc1OC
not listed: [53] | [54] | [55] | [56] | [57] | [58]
> 100 µM: all other assays above

COc1cc2c(cn1)[nH]c1ccccc12
not listed: [33] | [49]
> 100 µM: all other assays above

Source: PubChem BioAssay (NCI)
